Read-outs that look alike come from different tables or passages of the source.
Tests used:
[1] = Acute intravenous toxicity (LD50, method according to MILLER and TAINTER); settings: mouse, in vivo, Swiss mice, read-out: LD50 /24hrs/kg of the animal
[2] = tested on: carrageenin-induced edema; experiment: Localized carrageenin-induced edema method (anti-inflammatory action); format: in vivo; settings: Rattus norvegicus, po, rats, 100 mg/kg orally (1 hour prior, simultaneously, 1 hour and 2.5 hours after)
Description: a. Localized carrageenin-induced edema method.
0.1 ml of a 1% carrageenin solution is injected at time 0 in the metatarsal flexor muscles of the right hind limb of rats. The animals of the treated group are administered orally, additionally, 100 mg/kg of the test derivative, respectively 1 hour prior to and then simultaneously with the phlogogenic agent, and then 1 hour and 2.5 hours thereafter. The determinations effected with a ROCH micrometer at times 0, 1 hour, 2 hrs, 3 hrs and 5 hrs after carrageenin administration make it possible to determine, as a function of time, the percent anti-inflammatory activity.

[3] = tested on: Ovalbumin-induced systemic edema; experiment: Ovalbumin-induced systemic edema method (anti-inflammatory action); format: in vivo; settings: Rattus norvegicus, po, rats, 100 mg/kg orally (1 hour prior and simultaneously), with respect to control group
Description: b. Ovalbumin-induced systemic edema method
Rats are administered a simultaneous intraperitoneal injection of 1 ml ovalbumin and 0.5 ml of a 1% Evans Blue solution. The animals of the treated group are additionally administered orally 100 mg/kg of the test derivative, one hour prior to ovalbumin administration and then simultaneously with said ovalbumin administration. The intensity of the phenomenon thus induced is rated according to a scale from 1 to 5, according to the progress of the inflammatory syndrome. The measurements are effected after 2 hours and after 3 hours. Thus are determined the mean intensity of the edema and the percent decrease of the edema reaction with respect to the control group.

[4] = tested on: mechanical stimulation (pressure forceps at the base of the tail); experiment: Antalgic action, mechanical stimulation method according to Haffner; format: in vivo; settings: mouse, 100 mg/kg oral
Description: This method comprises placing a pressure forceps at the base of the tail of a mouse and recording the number of bites self-inflicted by the animal in its endeavour to remove the forceps. The decrease of the number of bites prior to and subsequently to oral administration of the test compound at a dosage of 100 mg/kg provides a measure of the antalgic activity of the derivatives of this invention.

[5] = after 1 hour, read-out: Percent anti-inflammatory activity after 1 hour
[6] = after 2 hours, read-out: Percent anti-inflammatory activity after 2 hours
[7] = after 5 hours, read-out: Percent anti-inflammatory activity after 5 hours
[8] = after 2 hrs, read-out: Percent decrease of the edema reaction after 2 hrs
[9] = after 3 hrs, read-out: Percent decrease of the edema reaction after 3 hrs
[10] = 0.5 h, after 30 min., read-out: mean percent antalgia after 30 min.
[11] = after 1 hr, read-out: mean percent antalgia after 1 hr
[12] = after 2 hrs, read-out: mean percent antalgia after 2 hrs
[13] = after 3 hrs, read-out: mean percent antalgia after 3 hrs

| Structure (SMILES) | LD50 at 24 h [1] | inhibition in vivo at 100 mg/kg [2, 5] | inhibition in vivo at 100 mg/kg [2, 6] | inhibition in vivo at 100 mg/kg [2, 7] | inhibition in vivo at 100 mg/kg [3, 8] | inhibition in vivo at 100 mg/kg [3, 9] | inhibition in vivo at 100 mg/kg [4, 10] | inhibition in vivo at 100 mg/kg [4, 11] | inhibition in vivo at 100 mg/kg [4, 12] | inhibition in vivo at 100 mg/kg [4, 13] |
| --- | --- | --- | --- | --- | --- | --- | --- | --- | --- | --- |
| COC1(C)CNCc2ccsc21 (stereo not shown) [Derivative 5, 7-Methoxy-7-methyl-4,5,6,7-tetrahydro-thieno[3,2-c]-pyridine] | 138 mg/kg | 39% | 49% | 57% | 49% | 60% | 67% | 61% | 55% | 46% |
| COC1c2sccc2CNC1C (stereo not shown) [Derivative 7, 7-Methoxy-6-methyl-4,5,6,7-tetrahydro-thieno[3,2-c]-pyridine] | 210 mg/kg | 36% | 48% | 62% | 47% | 58% | 70% | 65% | 61% | 53% |
| CCOC1(C)CNCc2ccsc21 (stereo not shown) [Derivative 6, 7-Ethoxy-7-methyl-4,5,6,7-tetrahydro-thieno[3,2-c]-pyridine] | 224 mg/kg | 40% | 49% | 61% | 44% | 58% | 66% | 60% | 55% | 48% |
| CCOC1CNCc2ccsc21 (stereo not shown) [Derivative 2, 7-Ethoxy-4,5,6,7-tetrahydro-thieno[3,2-c]-pyridine] | 145 mg/kg | 36% | 44% | 52% | 48% | 59% | 71% | 66% | 62% | 59% |
| c1ccc(COC2CNCc3ccsc32)cc1 (stereo not shown) [Derivative 4, 7-Benzyloxy-4,5,6,7-tetrahydro-thieno[3,2-c]-pyridine] | 95 mg/kg | 42% | 50% | 60% | 53% | 64% | 75% | 69% | 66% | 57% |
| CC(C)COC1CNCc2ccsc21 (stereo not shown) [Derivative 3, 7-Isobutoxy-4,5,6,7-tetrahydro-thieno[3,2-c]-pyridine] | 180 mg/kg | 39% | 48% | 58% | 51% | 63% | 68% | 60% | 55% | 48% |
| CCOC1c2sccc2CNC1C (stereo not shown) [Derivative 8, 7-Ethoxy-6-methyl-4,5,6,7-tetrahydro-thieno[3,2-c]-pyridine] | 129 mg/kg | 38% | 53% | 61% | 44% | 56% | 71% | 65% | 59% | 50% |
| COC1CNCc2ccsc21 (stereo not shown) [Derivative 1, 7-Methoxy-4,5,6,7-tetrahydro-thieno[3,2-c]-pyridine] | 262 mg/kg | 35% | 41% | 50% | 51% | 60% | 75% | 63% | 59% | 51% |
| COC1c2sccc2CNC1c1ccccc1 (stereo not shown) [Derivative 10, 7-Methoxy-6-phenyl-4,5,6,7-tetrahydro-thieno[3,2-c]-pyridine] | 195 mg/kg | 37% | 50% | 56% | 48% | 57% | 73% | 66% | 60% | 53% |
| COC1(C)c2sccc2CNC1C (stereo not shown) [Derivative 9, 6,7-Dimethyl-7-methoxy-4,5,6,7-tetrahydro-thieno[3,2-c]-pyridine] | 175 mg/kg | 44% | 52% | 62% | 50% | 63% | 68% | 63% | 56% | 49% |
